Measurements as given in paper PMC2263054, “Functional evolution of the vitamin D and pregnane X receptors” (BMC Evolutionary Biology, 2007).
Counter-ions that a name gives are not always drawn. Like-named read-outs stand apart in the source and are kept apart here.

Tests used:
Type in all cases: cell-based
Xenopus laevis VDR = target: T1, Xenopus laevis VDR (Xenopus laevis, UniProt O13124); assay: luciferase reporter transactivation assay in HepG2-NTCP cells, GAL4/xlVDR LBD chimera with tk-UAS-Luc; details: for Effect on Xenopus laevis VDR: screening for activators, at least three concentrations of each drug
T1 sequence (O13124 90-422): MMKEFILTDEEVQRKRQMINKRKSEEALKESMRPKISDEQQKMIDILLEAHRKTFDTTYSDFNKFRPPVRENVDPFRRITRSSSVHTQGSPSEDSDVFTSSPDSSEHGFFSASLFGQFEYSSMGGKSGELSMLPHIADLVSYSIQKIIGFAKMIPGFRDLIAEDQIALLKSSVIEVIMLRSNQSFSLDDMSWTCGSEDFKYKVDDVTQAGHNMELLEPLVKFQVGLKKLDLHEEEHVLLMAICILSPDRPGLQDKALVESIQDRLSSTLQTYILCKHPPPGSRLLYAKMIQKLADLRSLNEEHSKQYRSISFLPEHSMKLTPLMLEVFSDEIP

Zebrafish VDR = target: T2, Zebrafish VDR (Danio rerio, UniProt Q9PTN2); assay: luciferase reporter transactivation assay in HepG2-NTCP cells, GAL4/zfVDR LBD chimera with tk-UAS-Luc; details: for Effect on zebrafish VDR: screening for activators, at least three concentrations of each drug
T2 sequence (Q9PTN2 121-453): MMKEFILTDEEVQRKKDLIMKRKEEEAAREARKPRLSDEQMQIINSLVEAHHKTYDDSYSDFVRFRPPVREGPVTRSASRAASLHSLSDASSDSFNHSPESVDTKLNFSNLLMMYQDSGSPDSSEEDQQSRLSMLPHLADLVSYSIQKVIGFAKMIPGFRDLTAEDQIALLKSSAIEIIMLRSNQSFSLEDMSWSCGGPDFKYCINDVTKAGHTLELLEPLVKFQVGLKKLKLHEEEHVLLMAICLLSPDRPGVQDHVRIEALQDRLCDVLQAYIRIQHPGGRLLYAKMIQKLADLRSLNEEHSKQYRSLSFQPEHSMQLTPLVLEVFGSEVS

Sea lamprey VDR = target: T3, Sea lamprey VDR (Petromyzon marinus, UniProt Q7ZZY9)
T3 sequence (Q7ZZY9 92-406): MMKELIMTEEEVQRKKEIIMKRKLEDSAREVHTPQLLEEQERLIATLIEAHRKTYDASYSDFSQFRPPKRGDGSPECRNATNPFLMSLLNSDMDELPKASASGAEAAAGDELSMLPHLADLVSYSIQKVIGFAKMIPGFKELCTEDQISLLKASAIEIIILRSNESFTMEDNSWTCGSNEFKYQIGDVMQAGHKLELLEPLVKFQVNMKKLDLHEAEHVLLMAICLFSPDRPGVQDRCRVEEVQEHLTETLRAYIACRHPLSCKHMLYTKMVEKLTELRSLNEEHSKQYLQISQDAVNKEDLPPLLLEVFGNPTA

[1] = screening for activators, at least three concentrations of each drug
[2] = HepG2-NTCP cells, luciferase reporter, unit not given, also cells saying No effect

C[C@]12CC[C@@H]3c4ccc(O)cc4CC[C@H]3[C@@H]1C[C@@H](O)C2=O [16a-Hydroxyestrone]
No effect: Effect on Xenopus laevis VDR (Xenopus laevis VDR) | Effect on zebrafish VDR (Zebrafish VDR) | Effect on sea lamprey VDR (Sea lamprey VDR; [1])

CC1=C(/C=C/C(C)=C/C=C/C(C)=C\CO)C(C)(C)CCC1 [13-cis-Retinol]
No effect: Effect on Xenopus laevis VDR (Xenopus laevis VDR) | Effect on zebrafish VDR (Zebrafish VDR) | Effect on sea lamprey VDR (Sea lamprey VDR; [1])

C[C@H](CCC(=O)NCC(=O)O)[C@H]1CC[C@H]2[C@@H]3CC[C@@H]4C[C@H](O)CC[C@]4(C)[C@H]3C[C@H](O)[C@]12C.O [Glycodeoxycholic acid monohydrate]
No effect: Effect on Xenopus laevis VDR (Xenopus laevis VDR) | Effect on zebrafish VDR (Zebrafish VDR) | Effect on sea lamprey VDR (Sea lamprey VDR; [1])

C[C@H](CCC(=O)NCCS(=O)(=O)[O-])[C@H]1CC[C@H]2[C@@H]3CC[C@@H]4C[C@H](O)CC[C@]4(C)[C@H]3C[C@H](O)[C@]12C.[Na+] [Taurodeoxycholic acid sodium salt]
No effect: Effect on Xenopus laevis VDR (Xenopus laevis VDR) | Effect on zebrafish VDR (Zebrafish VDR) | Effect on sea lamprey VDR (Sea lamprey VDR; [1])

CC1(COc2ccc(CC3SC(=O)NC3=O)cc2)CCCCC1 (stereo not drawn) [Ciglitazone]
No effect: Effect on Xenopus laevis VDR (Xenopus laevis VDR) | Effect on zebrafish VDR (Zebrafish VDR) | Effect on sea lamprey VDR (Sea lamprey VDR; [1])

C[C@H](CCC(=O)O)[C@H]1CC[C@H]2[C@@H]3C[C@@H](O)[C@@H]4C[C@H](O)CC[C@]4(C)[C@H]3CC[C@]12C [5b-Cholanic acid-3a,6b-diol]
No effect: Effect on Xenopus laevis VDR (Xenopus laevis VDR) | Effect on zebrafish VDR (Zebrafish VDR) | Effect on sea lamprey VDR (Sea lamprey VDR)

C[C@]12CC[C@H]3[C@@H](C[C@H](F)C4=CC(=O)CC[C@@]43C)[C@@H]1CC[C@@H]2O [6a-Fluorotestosterone]
No effect: Effect on Xenopus laevis VDR (Xenopus laevis VDR) | Effect on zebrafish VDR (Zebrafish VDR) | Effect on sea lamprey VDR (Sea lamprey VDR; [1])

CC(C)CCC[C@@H](C)[C@H]1CC[C@H]2[C@@H]3CC[C@@H]4C[C@H](OS(=O)(=O)O)CC[C@]4(C)[C@H]3CC[C@]12C [5b-cholestan-3a-ol sulfate]
No effect: Effect on Xenopus laevis VDR (Xenopus laevis VDR) | Effect on zebrafish VDR (Zebrafish VDR) | Effect on sea lamprey VDR (Sea lamprey VDR; [1])

C[C@H](CCC(=O)NCC(=O)O)[C@H]1CC[C@H]2[C@@H]3CC[C@@H]4C[C@H](OS(=O)(=O)O)CC[C@]4(C)[C@H]3CC[C@]12C [Glycolithocholic acid 3-sulfate]
No effect: Effect on Xenopus laevis VDR (Xenopus laevis VDR) | Effect on zebrafish VDR (Zebrafish VDR) | Effect on sea lamprey VDR (Sea lamprey VDR; [1])

Clc1ccccc1C(c1ccccc1)(c1ccccc1)n1ccnc1 [Clotrimazole]
No effect: Effect on Xenopus laevis VDR (Xenopus laevis VDR) | Effect on zebrafish VDR (Zebrafish VDR) | Effect on sea lamprey VDR (Sea lamprey VDR; [1])

CC(=O)O[C@H]1C(=O)[C@@]2(C)[C@H]([C@H](OC(=O)c3ccccc3)[C@]3(O)C[C@H](OC(=O)[C@H](O)[C@@H](NC(=O)c4ccccc4)c4ccccc4)C(C)=C1C3(C)C)[C@]1(OC(C)=O)CO[C@@H]1C[C@@H]2O [Paclitaxel]
No effect: Effect on Xenopus laevis VDR (Xenopus laevis VDR) | Effect on zebrafish VDR (Zebrafish VDR) | Effect on sea lamprey VDR (Sea lamprey VDR; [1])

CC1=C(/C=C/C(C)=C/C=C/C(C)=C\C(=O)O)C(C)(C)CCC1 [13-cis Retinoic acid]
No effect: Effect on Xenopus laevis VDR (Xenopus laevis VDR) | Effect on zebrafish VDR (Zebrafish VDR) | Effect on sea lamprey VDR (Sea lamprey VDR; [1])

C[C@H](CCC(=O)O)[C@H]1CC[C@H]2[C@@H]3CC[C@@H]4C[C@H](O)CC[C@]4(C)[C@H]3CC[C@]12C [Lithocholic acid]
No effect: Xenopus VDR EC50 ± SD (Xenopus laevis VDR; [2]) | Zebrafish VDR EC50 ± SD (Zebrafish VDR; [2]) | Sea lamprey VDR EC50 ± SD (Sea lamprey VDR; [2])

C[C@]12CCC(=O)C=C1CC[C@@H]1[C@@H]2[C@@H](O)C[C@]2(C=O)[C@@H](C(=O)CO)CC[C@@H]12 [Aldosterone]
No effect: Effect on Xenopus laevis VDR (Xenopus laevis VDR) | Effect on zebrafish VDR (Zebrafish VDR) | Effect on sea lamprey VDR (Sea lamprey VDR; [1])

CC(=O)[C@H]1CC[C@H]2[C@@H]3CC[C@@H]4C[C@H](OS(=O)(=O)O)CC[C@]4(C)[C@H]3CC[C@]12C [5b-pregnan-3a-ol-20-one sulfate]
No effect: Effect on Xenopus laevis VDR (Xenopus laevis VDR) | Effect on zebrafish VDR (Zebrafish VDR) | Effect on sea lamprey VDR (Sea lamprey VDR; [1])

CCc1ccc(CCOc2ccc(CC3SC(=O)NC3=O)cc2)nc1 (stereo not drawn) [Pioglitazone HCl]
No effect: Effect on Xenopus laevis VDR (Xenopus laevis VDR) | Effect on zebrafish VDR (Zebrafish VDR) | Effect on sea lamprey VDR (Sea lamprey VDR; [1])

C[C@]12CC[C@@H](O)C[C@H]1CC[C@@H]1[C@@H]2C(=O)C[C@]2(C)C(=O)CC[C@@H]12 [5b-Androstan-3a-ol-11,17-one]
No effect: Effect on Xenopus laevis VDR (Xenopus laevis VDR) | Effect on zebrafish VDR (Zebrafish VDR) | Effect on sea lamprey VDR (Sea lamprey VDR; [1])

CC(C)[C@H](C)CC[C@@H](C)[C@H]1CC[C@H]2[C@@H]3CC=C4C[C@@H](O)CC[C@]4(C)[C@H]3CC[C@]12C [Campesterol]
No effect: Effect on Xenopus laevis VDR (Xenopus laevis VDR) | Effect on zebrafish VDR (Zebrafish VDR) | Effect on sea lamprey VDR (Sea lamprey VDR; [1])

CC(C)CCC[C@@H](C)[C@H]1CC[C@H]2C3=CC[C@H]4C[C@@H](O)CC[C@]4(C)[C@H]3CC[C@]12C [Lathosterol]
No effect: Effect on Xenopus laevis VDR (Xenopus laevis VDR) | Effect on zebrafish VDR (Zebrafish VDR) | Effect on sea lamprey VDR (Sea lamprey VDR; [1])

C[C@]12CC[C@@H]3c4ccc(O[C@@H]5O[C@H](C(=O)O)[C@@H](O)[C@H](O)[C@H]5O)cc4CC[C@H]3[C@@H]1CC[C@@H]2O [Estradiol 3-glucuronide]
No effect: Effect on Xenopus laevis VDR (Xenopus laevis VDR) | Effect on zebrafish VDR (Zebrafish VDR) | Effect on sea lamprey VDR (Sea lamprey VDR; [1])

C[C@]12CCC(=O)C[C@@H]1CC[C@@H]1[C@@H]2CC[C@]2(C)C=CC[C@@H]12 [16,(5a)-Androsten-3-one]
No effect: Effect on Xenopus laevis VDR (Xenopus laevis VDR) | Effect on zebrafish VDR (Zebrafish VDR) | Effect on sea lamprey VDR (Sea lamprey VDR; [1])

C[C@H]([C@H](O)CCC(C)(C)O)[C@H]1CC[C@@]2(O)C3=CC(=O)[C@@H]4C[C@@H](O)[C@@H](O)C[C@]4(C)[C@H]3CC[C@]12C [Ecdysone]
No effect: Effect on Xenopus laevis VDR (Xenopus laevis VDR) | Effect on zebrafish VDR (Zebrafish VDR) | Effect on sea lamprey VDR (Sea lamprey VDR; [1])

CC(C)=CCC/C(C)=C/CC/C(C)=C/CO [Farnesol]
No effect: Effect on Xenopus laevis VDR (Xenopus laevis VDR) | Effect on zebrafish VDR (Zebrafish VDR) | Effect on sea lamprey VDR (Sea lamprey VDR; [1])

C[C@H](O)[C@H]1CC[C@H]2[C@@H]3CC[C@@H]4C[C@H](O)CC[C@]4(C)[C@H]3CC[C@]12C [5b-Pregnan-3a,20a-diol]
No effect: Effect on Xenopus laevis VDR (Xenopus laevis VDR) | Effect on zebrafish VDR (Zebrafish VDR) | Effect on sea lamprey VDR (Sea lamprey VDR; [1])

CC1=C(/C=C/C(C)=C/C=C/C(C)=C/C(=O)O)C(C)(C)CCC1 [All trans retinoic acid]
No effect: Effect on Xenopus laevis VDR (Xenopus laevis VDR) | Effect on zebrafish VDR (Zebrafish VDR) | Effect on sea lamprey VDR (Sea lamprey VDR; [1])

C[C@@]12CCC[C@H]1[C@@H]1CC[C@@H]3C[C@@H](O)CC[C@]3(C)[C@H]1CC2 [5b-Androstan-3b-ol]
No effect: Effect on Xenopus laevis VDR (Xenopus laevis VDR) | Effect on zebrafish VDR (Zebrafish VDR) | Effect on sea lamprey VDR (Sea lamprey VDR; [1])

CC(=O)OC/C=C(C)/C=C/C=C(C)/C=C/C1=C(C)CCCC1(C)C [Retinyl acetate]
No effect: Effect on Xenopus laevis VDR (Xenopus laevis VDR) | Effect on zebrafish VDR (Zebrafish VDR) | Effect on sea lamprey VDR (Sea lamprey VDR; [1])

CC1=C(/C=C/C(C)=C/C=C/C(C)=C/C(=O)Nc2ccc(O)cc2)C(C)(C)CCC1 [4-Hydroxyphenylretinamide]
No effect: Effect on Xenopus laevis VDR (Xenopus laevis VDR) | Effect on zebrafish VDR (Zebrafish VDR) | Effect on sea lamprey VDR (Sea lamprey VDR; [1])

Cc1c(C)c2c(c(C)c1O)CCC(C)(COc1ccc(CC3SC(=O)NC3=O)cc1)O2 (stereo not drawn) [Troglitazone]
No effect: Effect on Xenopus laevis VDR (Xenopus laevis VDR) | Effect on zebrafish VDR (Zebrafish VDR) | Effect on sea lamprey VDR (Sea lamprey VDR; [1])

CC(C)CCC[C@@H](C)[C@H]1CC[C@H]2[C@@H]3CC=C4C[C@@H](OS(=O)(=O)O)CC[C@]4(C)[C@H]3CC[C@]12C [Cholesteryl sulfate (5-cholesten-3b-ol), Cholesteryl sulfate]
No effect: Effect on Xenopus laevis VDR (Xenopus laevis VDR) | Effect on zebrafish VDR (Zebrafish VDR) | Effect on sea lamprey VDR (Sea lamprey VDR; [1])

C#C[C@]1(O)CC[C@H]2[C@@H]3CCC4=CC(=O)CC[C@@H]4[C@H]3CC[C@@]21CC [Levonorgestrol]
No effect: Effect on Xenopus laevis VDR (Xenopus laevis VDR) | Effect on zebrafish VDR (Zebrafish VDR) | Effect on sea lamprey VDR (Sea lamprey VDR; [1])

CC[C@@]1(O)CC[C@H]2[C@@H]3CC=C4C[C@@H](OS(=O)(=O)O)CC[C@]4(C)[C@H]3CC[C@@]21C [5-Pregnen-3b,17-diol 3-sulfate]
No effect: Effect on Xenopus laevis VDR (Xenopus laevis VDR) | Effect on zebrafish VDR (Zebrafish VDR) | Effect on sea lamprey VDR (Sea lamprey VDR; [1])
